Tests used:
DNA-PK protein complex = DNA-PK protein complex (Homo sapiens, UniProt P78527); assay: Biochemical DNA-PK assay (FlashPlate)
Procedure: The kinase assay is carried out in […] microtitre FlashPlates®, coated with streptavidin. […] The reaction is stopped by addition of 50 μl/well of 200 mM EDTA. After incubation for 30 minutes, the liquids are removed at room temperature. Each well is washed three times with 100 μl of 0.9% NaCl solution. Non-specific reaction (blank) is determined using a proprietary kinase inhibitor (10 μM). The radioactivity is measured by means of a Topcount. […] Todd Eary, J. G. Schiro, H. Huang, L. E. Burgess, E. A. Kesicki, and J. Halbrook.

mTOR = molecular target: T1, mTOR (Homo sapiens, UniProt P42345); assay: Biochemical mTOR assay (Millipore mTOR assay kit)
T1 construct: purchased Millipore 14-770
Procedure: The biochemical mTOR assay was carried out by the method described in the Millipore mTOR assay kit (catalogue number 14-770).

[1] = tested on: PI3K-dependent phosphorylation of PKB at Serin 473 in PC3 cells; assay: Cellular PI3K assay (P-S473-PKB Luminex assay in PC3 cells); format: cell-based; settings: Homo sapiens, PC-3, 0.5 h; PC3 cells, 30 min, serum-free, P-S473-PKB; read-out: IC50 (cell)
Procedure: The cellular assay for determination of the P-S473-PKB level is carried out as a Luminex assay in 96-well format in PC3 cells.
PC3 cells are sown out with 20,000 cells per well in 100 μl medium (45% […]/45% Ham's F12/10% FCS) and incubated on the following day for 30 min with a serial dilution of the test substance (7 concentrations) under serum-free conditions. The cells are subsequently lysed using 90 μl of lysis buffer (20 mM Tris/HCl pH 8.0, 150 mM NaCl, 1% NP40, 10% glycerol, 1% phosphatase inhibitor I, 1% phosphatase inhibitor II, 0.1% protease inhibitor cocktail III, 0.01% benzonase) per well, and the lysates are separated off from insoluble cell constituents by means of centrifugation through a 96-well filter plate (0.65 μm). The lysates are incubated overnight at 4° C. with shaking with Luminex beads to which an anti-total PKB antibody is coupled. The detection is carried out on the following day by addition of a P-S473-PKB antibody and a species-specific PE-labelled secondary antibody. The detection of P-S473-PKB is carried out by measurement in a Luminex100 instrument by determination of 100 events per cavity in a measurement time of 60 sec.

PI3Kbeta = PI3Kbeta (Homo sapiens, UniProt P42338); assay: Biochemical PI3Kbeta assay (neomycin SPA, lipid phosphorylation); settings: human recombinant GST-PI3K
Procedure: (§1) The efficacy of the compounds according to the invention in the inhibition of PI3K-induced lipid phosphorylation can be investigated in the following binding assay. The assay combines scintillation proximity assay (SPA) technology (Amersham) with the ability of neomycin (a polycationic antibiotic) to bind phospholipids with high affinity and specificity. […] The coating of SPA beads with neomycin allows the detection of phosphorylated lipid substrates after incubation with recombinant PI3K and radioactive ATP in the same well by trapping the radioactive phospholipids by the SPA beads owing to their specific binding to neomycin. […] After incubation at room temperature for 120 minutes with gentle stirring, the reaction was stopped by addition of 200 μl of a solution comprising 250 μg of neomycin-coated PVT-SPA beads, ATP 60 mM and EDTA 6.2 mM in PBS. The assay is incubated at room temperature for a further 60 minutes with gentle stirring in order to enable binding of the phospholipids to the neomycin-SPA beads. After precipitation of the neomycin-coated PVT-SPA beads over 5 minutes at 1500×g, radioactive Ptdlns(3)P is quantified by scintillation counting in a Wallac Micro-Beta™ plate counter.

PI3Kalpha = PI3Kalpha (Homo sapiens, UniProt P42336); assay: Biochemical PI3Kalpha assay (neomycin SPA, lipid phosphorylation); settings: human recombinant GST-PI3K
Procedure: as §1

[2] = molecular target: recombinant PI3Kalpha (shortened form of the catalytic subunit) (Homo sapiens, UniProt P42336); assay: BIACORE PI3K binding assay (SPR); settings: 25° C.
Procedure: SPR measurements of the binding affinities and binding kinetics on PI3Kalpha surfaces with the aid of Biacore systems. The experiments are carried out on a Biacore S51 “Compound Characterization” or a Biacore T100 instrument utilising the default application “Kinetics/Affinity” Experimental conditions: recombinant PI3Kalpha (shortened form of the catalytic subunit, missing N terminal from about 100 to 150 aa, Mw about 110 kDa, prepared by Proteros Biostructures GmbH) is immobilised on Biacore CM5 chips (25° C., flow rate: 10 μl/min, utilising amine coupling at pH 7.40—Biacore Standard protocol). PI3Kalpha is employed in concentrations between 10 and 25 μg/ml. Depending on the duration of the injection time, immobilisation levels from 1700 to 11000 RU are achieved. The substances to be measured are added in the form of a titration series. The substance concentration is doubled for each subsequent injection. 10 different substance concentrations which cover a 500-fold dilution range are usually injected. […] Kinetic titration experiments are carried out at 25° C. with a flow rate of 30 μl/min, the sample contact time is 180 s, and the dissociation time is 240 s in a running buffer (20 mM HEPES pH7.40, 150 mM NaCl, 5 mM MgCl2, 1 mM DTT, 0.1 mM EDTA, 0.05% Tween 20) comprising 2% of DMSO. Buffer injections (as double references) identical to the sample injections are carried out in each case at the beginning of a continuous series. Solvent correction cycles (eight correction points, 1.4%-2.8% DMSO) are carried out at equal intervals. In order to condition the surface, at least five start-up cycles (buffer injections) are carried out. Data points are collected with a sample rate of 10 Hz. Surface regeneration is carried out after each measurement cycle, apart from after the solvent correction runs. For this purpose, two times 100 mM NaHCO3 pH 8.60 are injected for 30 sec. Data sets are processed and analysed using the Biacore S51 Evaluation software, version 1.2.1, or Biacore T100 Evaluation, version 2.0. Solvent-corrected and double-referenced association and dissociation phase data are adapted to a simple 1:1 interaction model with mass transport limitations.

Chain of PI3Kalpha (P42336 whole entry): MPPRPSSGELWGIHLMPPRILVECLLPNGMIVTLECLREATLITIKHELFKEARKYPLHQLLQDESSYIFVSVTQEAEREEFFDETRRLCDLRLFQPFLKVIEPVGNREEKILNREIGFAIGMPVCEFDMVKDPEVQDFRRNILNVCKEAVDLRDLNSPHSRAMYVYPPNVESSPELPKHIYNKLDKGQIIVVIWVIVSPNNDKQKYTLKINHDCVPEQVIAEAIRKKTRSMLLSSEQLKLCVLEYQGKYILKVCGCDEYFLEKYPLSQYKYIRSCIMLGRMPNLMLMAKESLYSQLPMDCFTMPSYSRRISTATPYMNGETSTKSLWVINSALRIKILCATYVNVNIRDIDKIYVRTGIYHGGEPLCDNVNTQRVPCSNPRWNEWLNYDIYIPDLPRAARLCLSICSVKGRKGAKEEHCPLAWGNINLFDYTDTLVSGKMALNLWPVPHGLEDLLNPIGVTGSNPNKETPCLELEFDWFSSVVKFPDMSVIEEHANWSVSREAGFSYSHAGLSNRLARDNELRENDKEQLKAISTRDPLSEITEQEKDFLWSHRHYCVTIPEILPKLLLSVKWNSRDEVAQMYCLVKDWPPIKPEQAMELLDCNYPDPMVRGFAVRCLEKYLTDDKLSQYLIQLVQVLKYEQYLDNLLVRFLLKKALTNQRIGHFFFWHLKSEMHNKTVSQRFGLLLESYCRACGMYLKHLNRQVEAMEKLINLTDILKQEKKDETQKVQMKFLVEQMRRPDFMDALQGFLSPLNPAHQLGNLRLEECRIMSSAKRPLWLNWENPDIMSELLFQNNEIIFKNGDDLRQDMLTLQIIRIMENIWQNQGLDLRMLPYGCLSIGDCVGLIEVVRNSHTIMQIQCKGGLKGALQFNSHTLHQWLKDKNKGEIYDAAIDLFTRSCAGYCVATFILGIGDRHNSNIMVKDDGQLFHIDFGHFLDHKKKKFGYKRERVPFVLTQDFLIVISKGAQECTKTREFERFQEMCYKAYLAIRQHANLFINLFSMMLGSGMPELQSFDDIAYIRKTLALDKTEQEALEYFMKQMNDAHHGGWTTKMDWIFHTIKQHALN
Chain of PI3Kalpha (P27986 whole entry partner): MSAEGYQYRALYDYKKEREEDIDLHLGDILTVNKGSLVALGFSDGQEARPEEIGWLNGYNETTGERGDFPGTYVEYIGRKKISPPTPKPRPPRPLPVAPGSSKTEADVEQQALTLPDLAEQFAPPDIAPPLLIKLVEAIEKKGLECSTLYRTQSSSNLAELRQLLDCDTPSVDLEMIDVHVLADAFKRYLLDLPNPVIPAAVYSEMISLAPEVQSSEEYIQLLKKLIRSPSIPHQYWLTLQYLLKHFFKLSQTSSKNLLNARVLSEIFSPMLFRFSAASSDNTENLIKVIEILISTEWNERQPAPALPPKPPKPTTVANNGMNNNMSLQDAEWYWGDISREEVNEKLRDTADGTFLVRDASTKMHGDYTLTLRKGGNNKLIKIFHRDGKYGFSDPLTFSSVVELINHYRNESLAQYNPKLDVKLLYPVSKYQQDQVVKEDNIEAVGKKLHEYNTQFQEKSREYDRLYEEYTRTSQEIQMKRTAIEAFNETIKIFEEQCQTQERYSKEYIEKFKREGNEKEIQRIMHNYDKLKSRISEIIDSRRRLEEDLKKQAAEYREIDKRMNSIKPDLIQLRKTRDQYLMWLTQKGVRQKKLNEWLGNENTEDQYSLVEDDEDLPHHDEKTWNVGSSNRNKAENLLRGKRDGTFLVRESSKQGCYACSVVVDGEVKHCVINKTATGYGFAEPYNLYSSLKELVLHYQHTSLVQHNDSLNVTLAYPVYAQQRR
Chain of PI3Kbeta (P42338 whole entry): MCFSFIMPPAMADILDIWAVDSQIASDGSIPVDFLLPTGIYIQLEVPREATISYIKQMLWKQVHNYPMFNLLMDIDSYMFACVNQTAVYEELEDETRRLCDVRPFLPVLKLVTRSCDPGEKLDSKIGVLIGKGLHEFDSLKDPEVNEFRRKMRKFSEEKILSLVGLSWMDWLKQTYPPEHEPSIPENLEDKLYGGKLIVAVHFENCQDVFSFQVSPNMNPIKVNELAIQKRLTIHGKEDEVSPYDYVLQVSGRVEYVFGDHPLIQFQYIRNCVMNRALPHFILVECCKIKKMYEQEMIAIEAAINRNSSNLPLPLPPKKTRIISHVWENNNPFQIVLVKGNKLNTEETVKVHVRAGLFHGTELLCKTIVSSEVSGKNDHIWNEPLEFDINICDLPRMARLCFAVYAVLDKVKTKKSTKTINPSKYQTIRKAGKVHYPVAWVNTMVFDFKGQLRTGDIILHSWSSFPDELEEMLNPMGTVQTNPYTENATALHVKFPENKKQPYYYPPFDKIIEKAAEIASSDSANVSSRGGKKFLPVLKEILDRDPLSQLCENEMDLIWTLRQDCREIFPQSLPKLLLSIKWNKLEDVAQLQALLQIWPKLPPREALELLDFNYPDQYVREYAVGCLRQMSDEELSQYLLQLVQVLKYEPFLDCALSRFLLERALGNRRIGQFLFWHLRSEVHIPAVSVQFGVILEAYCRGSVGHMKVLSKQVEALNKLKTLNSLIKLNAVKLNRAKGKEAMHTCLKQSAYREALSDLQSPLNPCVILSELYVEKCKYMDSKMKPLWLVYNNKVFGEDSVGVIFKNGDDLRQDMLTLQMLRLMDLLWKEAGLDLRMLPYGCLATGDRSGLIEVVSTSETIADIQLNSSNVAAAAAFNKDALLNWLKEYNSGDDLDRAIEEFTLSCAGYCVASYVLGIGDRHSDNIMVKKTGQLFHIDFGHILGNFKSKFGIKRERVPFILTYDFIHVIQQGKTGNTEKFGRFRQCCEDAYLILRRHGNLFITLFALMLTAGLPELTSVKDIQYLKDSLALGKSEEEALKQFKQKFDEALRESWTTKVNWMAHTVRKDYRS
Chain of PI3Kbeta (P27986 whole entry partner): as the sequence (P27986 whole entry partner) above
Chain of recombinant PI3Kalpha (shortened form of the catalytic subunit) (P42336 151-1068 limits assumed): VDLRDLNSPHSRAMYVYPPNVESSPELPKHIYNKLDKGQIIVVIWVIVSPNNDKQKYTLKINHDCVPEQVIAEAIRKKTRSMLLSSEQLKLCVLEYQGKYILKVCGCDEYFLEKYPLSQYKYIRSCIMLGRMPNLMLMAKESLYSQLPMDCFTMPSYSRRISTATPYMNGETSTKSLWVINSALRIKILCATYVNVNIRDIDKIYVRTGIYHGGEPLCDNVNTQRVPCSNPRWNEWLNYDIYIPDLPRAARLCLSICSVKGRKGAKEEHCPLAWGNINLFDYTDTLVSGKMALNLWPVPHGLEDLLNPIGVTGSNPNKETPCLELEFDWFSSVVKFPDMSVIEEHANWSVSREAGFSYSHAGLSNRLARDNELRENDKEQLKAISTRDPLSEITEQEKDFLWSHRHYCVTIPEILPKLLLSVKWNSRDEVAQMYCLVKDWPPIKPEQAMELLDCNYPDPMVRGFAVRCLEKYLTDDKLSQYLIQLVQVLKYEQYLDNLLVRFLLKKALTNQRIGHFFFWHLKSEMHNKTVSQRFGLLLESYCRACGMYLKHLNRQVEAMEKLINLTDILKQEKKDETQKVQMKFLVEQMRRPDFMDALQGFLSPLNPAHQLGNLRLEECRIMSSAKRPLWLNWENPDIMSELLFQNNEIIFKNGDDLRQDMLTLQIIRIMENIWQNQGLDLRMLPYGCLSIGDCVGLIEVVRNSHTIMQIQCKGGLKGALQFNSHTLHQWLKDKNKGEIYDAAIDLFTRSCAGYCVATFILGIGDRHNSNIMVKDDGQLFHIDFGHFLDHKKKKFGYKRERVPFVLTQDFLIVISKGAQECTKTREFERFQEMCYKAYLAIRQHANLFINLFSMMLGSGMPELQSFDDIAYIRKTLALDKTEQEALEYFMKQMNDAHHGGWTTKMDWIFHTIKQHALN
T1 sequence (P42345 1362-2549 limits assumed): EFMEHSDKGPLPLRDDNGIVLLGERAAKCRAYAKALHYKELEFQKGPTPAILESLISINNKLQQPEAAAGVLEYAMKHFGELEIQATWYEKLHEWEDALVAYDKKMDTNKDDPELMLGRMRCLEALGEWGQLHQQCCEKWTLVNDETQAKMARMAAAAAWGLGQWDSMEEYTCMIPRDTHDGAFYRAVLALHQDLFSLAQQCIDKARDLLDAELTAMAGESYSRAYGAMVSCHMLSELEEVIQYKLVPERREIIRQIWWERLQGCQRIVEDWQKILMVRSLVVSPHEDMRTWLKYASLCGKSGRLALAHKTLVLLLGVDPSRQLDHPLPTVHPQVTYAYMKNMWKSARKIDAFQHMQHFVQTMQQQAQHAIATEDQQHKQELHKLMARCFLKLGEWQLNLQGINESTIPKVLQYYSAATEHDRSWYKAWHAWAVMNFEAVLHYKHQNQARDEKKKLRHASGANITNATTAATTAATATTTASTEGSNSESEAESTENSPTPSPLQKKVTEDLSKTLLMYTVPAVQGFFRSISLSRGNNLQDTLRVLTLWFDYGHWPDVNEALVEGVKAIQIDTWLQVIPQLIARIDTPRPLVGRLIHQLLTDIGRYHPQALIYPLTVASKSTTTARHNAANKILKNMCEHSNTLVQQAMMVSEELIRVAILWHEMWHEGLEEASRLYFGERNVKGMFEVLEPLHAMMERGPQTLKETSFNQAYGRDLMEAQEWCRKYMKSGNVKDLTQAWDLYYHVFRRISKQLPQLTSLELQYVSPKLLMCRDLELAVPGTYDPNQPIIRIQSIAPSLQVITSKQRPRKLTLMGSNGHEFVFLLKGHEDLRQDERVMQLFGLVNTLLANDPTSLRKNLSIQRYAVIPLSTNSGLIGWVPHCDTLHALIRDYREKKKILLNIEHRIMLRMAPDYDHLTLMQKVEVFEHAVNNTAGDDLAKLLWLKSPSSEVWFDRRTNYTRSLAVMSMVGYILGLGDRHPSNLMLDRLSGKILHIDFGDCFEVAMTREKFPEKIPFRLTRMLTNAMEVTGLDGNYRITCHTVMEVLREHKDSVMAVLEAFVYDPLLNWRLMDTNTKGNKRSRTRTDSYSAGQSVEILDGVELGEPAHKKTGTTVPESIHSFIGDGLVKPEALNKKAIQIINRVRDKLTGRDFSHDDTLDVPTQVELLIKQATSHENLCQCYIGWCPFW

Row | Compound | IC50 (DNA-PK protein complex) [µM] | IC50 (mTOR) [µM] | IC50 [1] [µM] | IC50 (PI3Kbeta) [µM] | IC50 (PI3Kalpha) [µM] | Kd [2] [µM]
1 | Cn1cc(-c2cc(-c3ccc(=O)[nH]c3)ccn2)n(-c2ccc(C(C)(C)C#N)cc2)c1=O [Example A39, 2-{4-[5-(6-Hydroxy-[3,4′]bipyridinyl-2′-yl)-3-methyl-2-oxo-2,3-dihydroimidazol-1-yl]phenyl}-2-methylpropionitrile] | 0.0001 to 0.1 | 0.1 to 10 | > 10 |  |  | 
2 | Cn1cc(-c2cc(-c3cnc4[nH]ccc4c3)ccn2)n(-c2ccccc2C#N)c1=O [Example A69, 2-{3-Methyl-2-oxo-5-[4-(1H-pyrrolo[2,3-b]pyridin-5-yl)pyridin-2-yl]-2,3-dihydroimidazol-1-yl}benzonitrile] | > 10 |  | > 10 | > 10 | > 10 | 0.1 to 10
3 | Cn1cc(-c2cc(-c3cnc4[nH]ccc4c3)ccn2)n(-c2ccc(N3CCOCC3)c(C(F)(F)F)c2)c1=O [Example A71, 1-Methyl-3-(4-morpholin-4-yl-3-trifluoromethylphenyl)-4-[4-(1H-pyrrolo[2,3-b]-pyridin-5-yl)pyridin-2-yl]-1,3-dihydroimidazol-2-one] | 0.0001 to 0.1 |  | 0.0001 to 0.1 | 0.1 to 10 | 0.1 to 10 | 0.0001 to 0.1
4 | CN1CCN(c2ccc(-n3c(-c4cc(-c5cnc6[nH]ccc6c5)ccn4)cn(C)c3=O)cc2C#N)CC1 [Example A83, 5-{3-Methyl-2-oxo-5-[4-(1H-pyrrolo[2,3-b]pyridin-5-yl)pyridin-2-yl]-2,3-dihydroimidazol-1-yl}-2-(4-methylpiperazin-1-yl)benzonitrile] | 0.1 to 10 |  | 0.1 to 10 | 0.1 to 10 | 0.1 to 10 | 0.0001 to 0.1
5 | Cn1cc(-c2cc(-c3cnc(N)c(-c4ccccc4)c3)ccn2)n(-c2ccc(C(C)(C)C#N)cc2)c1=O [Example A84, 2-{4-[5-(6-Amino-5-phenyl-[3,4′]bipyridinyl-2′-yl)-3-methyl-2-oxo-2,3-dihydroimidazol-1-yl]phenyl}-2-methylpropionitrile] | 0.0001 to 0.1 |  | 0.1 to 10 | 0.1 to 10 | 0.0001 to 0.1 | 0.0001 to 0.1
6 | Cc1cc2cc(-c3ccnc(-c4cn(C)c(=O)n4-c4ccc(N5CCN(C)CC5)c(C(F)(F)F)c4)c3)cnc2[nH]1 [Example A88, 1-Methyl-3-[4-(4-methylpiperazin-1-yl)-3-trifluoromethylphenyl]-4-[4-(2-methyl-1H-pyrrolo[2,3-b]pyridin-5-yl)pyridin-2-yl]-1,3-dihydroimidazol-2-one] | 0.1 to 10 |  | 0.1 to 10 | 0.1 to 10 | 0.1 to 10 | 0.1 to 10
7 | CC(=O)N1CCN(c2ccc(-n3c(-c4cc(-c5ccc6[nH]ccc6c5)ccn4)cn(C)c3=O)cc2C(F)(F)F)CC1 [Example A89, 3-[4-(4-Acetylpiperazin-1-yl)-3-trifluoromethylphenyl]-4-[4-(1H-indol-5-yl)pyridin-2-yl]-1-methyl-1,3-dihydroimidazol-2-one] | 0.1 to 10 |  | 0.1 to 10 | > 10 | 0.1 to 10 | 0.1 to 10
8 | Cn1cc(-c2cc(-c3cnc4[nH]ccc4c3)ccn2)n(-c2cccc(Oc3ccccc3)c2)c1=O [Example A90, 1-Methyl-3-(3-phenoxyphenyl)-4-[4-(1H-pyrrolo[2,3-b]pyridin-5-yl)pyridin-2-yl]-1,3-dihydroimidazol-2-one] | 0.0001 to 0.1 |  | 0.0001 to 0.1 | 0.1 to 10 | 0.1 to 10 | 0.0001 to 0.1
9 | Cn1cc(-c2cc(-c3cnc(N)c(C(F)(F)F)c3)ccn2)n(-c2ccc(F)c(C(F)(F)F)c2)c1=O [Example A97, 4-(6-Amino-5-trifluoromethyl-[3,4′]bipyridinyl-2′-yl)-3-(4-fluoro-3-trifluoromethyl-phenyl)-1-methyl-1,3-dihydroimidazol-2-one] | 0.1 to 10 |  | 0.1 to 10 | 0.1 to 10 | 0.1 to 10 | 0.1 to 10
10 | CN1CCN(c2cc(C#N)cc(-n3c(-c4cc(-c5cnc6[nH]ccc6c5)ccn4)cn(C)c3=O)c2)CC1 [Example A98, 3-{3-Methyl-2-oxo-5-[4-(1H-pyrrolo[2,3-b]pyridin-5-yl)pyridin-2-yl]-2,3-dihydro-imidazol-1-yl}-5-(4-methylpiperazin-1-yl)benzonitrile] | 0.1 to 10 |  | > 10 | 0.1 to 10 | 0.1 to 10 | 0.1 to 10
11 | CCc1cc(-c2c[nH]c3ncc(-c4ccnc(-c5cn(C)c(=O)n5-c5ccc(C(C)(C)C#N)cc5)c4)cc23)nc(N)n1 [Example A99, 2-[4-(5-{4-[3-(2-Amino-6-ethylpyrimidin-4-yl)-1H-pyrrolo[2,3-b]pyridin-5-yl]-pyridin-2-yl}-3-methyl-2-oxo-2,3-dihydroimidazol-1-yl)phenyl]-2-methylpropionitrile] | 0.0001 to 0.1 |  | 0.1 to 10 | 0.1 to 10 | 0.1 to 10 | 0.1 to 10
12 | COc1ccc(Cn2c(-c3cc(-c4cnc5[nH]ccc5c4)ccn3)cn(C)c2=O)cc1 [Example A108, 3-(4-Methoxybenzyl)-1-methyl-4-[4-(1H-pyrrolo[2,3-b]pyridin-5-yl)pyridin-2-yl]-1,3-dihydroimidazol-2-one] | 0.0001 to 0.1 |  | 0.1 to 10 | > 10 | > 10 | 0.1 to 10
13 | COc1ccc(Cn2c(-c3cc(-c4cnc5[nH]ncc5c4)ccn3)cn(C)c2=O)cc1 [Example A109, 3-(4-Methoxybenzyl)-1-methyl-4-[4-(1H-pyrazolo[3,4-b]pyridin-5-yl)pyridin-2-yl]-1,3-dihydroimidazol-2-one] | 0.0001 to 0.1 |  | 0.1 to 10 | 0.1 to 10 | 0.1 to 10 | 0.1 to 10
14 | COc1ccc(Cn2c(-c3cc(-c4cnc(N)c(C(F)(F)F)c4)ccn3)cn(C)c2=O)cc1 [Example A110, 4-(6-Amino-5-trifluoromethyl-[3,4′]bipyridinyl-2′-yl)-3-(4-methoxybenzyl)-1-methyl-1,3-dihydroimidazol-2-one] | 0.1 to 10 |  | 0.1 to 10 | 0.1 to 10 | 0.1 to 10 | 0.1 to 10

From patent US8802866B2, “Pyridinylimidazolone derivatives for the inhibition of PI3 kinases” (Merck Patent GmbH, priority 2009, dated 2014)
